Literature values, collected in patent publication US20250135196A1, “COMPOSITIONS, SYSTEMS, AND METHODS FOR TREATING CANCER USING TUMOR TREATING FIELDS WITH INHIBITORS OF MIF, MICA, AND/OR MICB” (Brown University, priority 2023, published 2025).

How the values were obtained:
MIF-CD74 = molecular target: T1, MIF-CD74 (Homo sapiens, UniProt P14174); conditions: binding assay MIF-CD74; for Kd: read-out: Kd (BA)
T1 sequence (P14174 2-115 limits assumed): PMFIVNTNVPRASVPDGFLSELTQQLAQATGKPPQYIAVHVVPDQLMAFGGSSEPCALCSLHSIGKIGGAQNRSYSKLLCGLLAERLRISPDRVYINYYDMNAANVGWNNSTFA

MIF = molecular target: T2, MIF (Homo sapiens, UniProt P14174); conditions: tautomerase assay; for IC50 / Ki: literature values, reference number in brackets in cell; for fold more potent than ISO-1 (TA): relative to ISO-1; for Ki: read-out: Ki (TA)
T2 sequence (P14174 2-115 limits assumed): T1 sequence (P14174 2-115 limits assumed)

Q: For `COC(=O)CC1CC(c2ccc(O)cc2)=NO1` (racemic) [ISO-1], which “Max. inhibition (BA)” value (MIF-CD74; maximal inhibition) is on record?
A: 40%

Q: With `Ic1cc(-c2ccccc2)ncn1` [4-IPP, 4-iodo-6-phenylpyrimidine] as the compound, how does the IC50 (MIF) read?
A: 200 to 500 nM

Q: With `O=C(CC1CC(c2ccc(F)cc2F)=NO1)N1CCOCC1` (stereo not shown) [CPS1-1306] as the compound, how does the “fold more potent than ISO-1 (TA)” value (MIF) read?
A: 100-fold more potent than ISO-1 [35] (TA)

Q: For `CN(C(=O)CC1CC(c2ccc(Cl)cc2)=NO1)C1CCCCC1` (stereo not shown) [CPSI-2705], which “fold more potent than ISO-1 (TA)” value (MIF) is on record?
A: 2-10-fold more potent than ISO-1 (35) (TA)

Q: For `O=C(O)c1cccc(Oc2cc(-c3cn(-c4ccc(O)c(F)c4)nn3)nc3ccccc23)c1` [Dziedzic-3bb], which Ki (MIF) is on record?
A: 57 nM

Q: What about the Kd (MIF-CD74) of the same compound?
A: 71 nM

Q: For `COC(=O)CC1CC(c2ccc(O)c(F)c2)=NO1` (stereo not shown) [ISO-66], which IC50 (MIF) is on record?
A: 1500 nM

Q: With `COc1cccc(Cn2cc(-c3ccc(O)cc3)nn2)c1OC` [Jorgensen-3g] as the compound, how does the IC50 (MIF-CD74) read?
A: 900 nM

Q: Which IC50 (MIF-CD74) does the source give for `COC(=O)c1cccc(Cn2cc(-c3ccc(O)cc3)nn2)c1` [Jorgensen-3h] here?
A: 1000 nM

Q: Which IC50 (MIF) does the source give for `COc1ccc(N2Cc3ccc(O)cc3OC2=O)cc1` [NVS-2] here?
A: 20 nM

Q: What about the Ki (MIF) of the same compound?
A: 27 nM

Q: And the Kd (MIF-CD74)?
A: 55 nM

Q: For `Cc1ccccc1-c1cc2ccccc2c(=O)o1` [SCD-19], which “inhibition (TA)” value (MIF; at concentration of 100 μM) is on record?
A: 100% inhibition at concentration of 100 μM [37] (TA)
